Results published in patent publication US9693997B2, “Antiviral compounds” (priority 2013, dated 2017).
Where a name gives a salt, the structure may show the parent alone. Read-outs that look alike come from different tables or passages of the source.

Legend:
[1] = tested on: Pseudotyped HCV GT1b particles (HCVpp), entry into Huh7-high CD81 cells; test: microbe, parasite or virus in culture; assay type: cell-based, HCV GT1b Con1 strain
[2] = tested on: pseudotyped VSV G particles (VSVpp) in Huh7-high CD81 cells; test: microbe, parasite or virus in culture; assay type: cell-based, vesicular stomatitis virus
[3] = Hepatitis C virus, GT1B, 72 h, read-out: HCVpp GT-1b (EC50, μM)
[4] = Vesicular stomatitis virus, 72 h, read-out: VSVpp (EC50, μM)

Molecule | EC50 ([1]; read-out: HCVpp GT-1b (EC50)) [µM] | EC50 ([2]; read-out: VSVpp (EC50)) [µM] | EC50 [1, 3] [µM] | EC50 [2, 4] [µM]
4′-(5-amino-1H-1,2,4-triazol-3-ylamino)-2′-chloro-3-methoxy-N-(piperidin-4-yl)-6′-(trifluoromethyl)biphenyl-4-sulfonamide hydrochloride [Compound 178] | 0.023 | > 10 | – | –
Nc1nc(Nc2cc(Cl)c(-c3ccc(OC[C@H]4CCCN4)cc3)c(C(F)(F)F)c2)n[nH]1 (stereo in doubt) [Compound 279, N*3*-[6-Chloro-4′-(pyrrolidin-2-ylmethoxy)-2-trifluoromethyl-biphenyl-4-yl]-1H-[1,2,4]triazole-3,5-diamine] | – | – | 0.193 | 37
CC(C)(C)OC(=O)[C@@H]1CCCN1S(=O)(=O)c1ccc(-c2c(Cl)cc(Nc3n[nH]c(N)n3)cc2C(F)(F)F)cc1 [Compound 3, (S)-1-[4′-(5-Amino-1H-[1,2,4]triazol-3-ylamino)-2′-chloro-6′-trifluoromethyl-biphenyl-4-sulfonyl]-pyrrolidine-2-carboxylic acid tert-butyl ester] | – | – | 0.005 | 4.37
Nc1nc(Nc2cc(Cl)c(-c3ccc(S(=O)(=O)C4CCN(CCC(F)(F)F)CC4)cc3)c(C(F)(F)F)c2)n[nH]1 [Compound 4, N*3*-{2-Chloro-6-trifluoromethyl-4′-[1-(3,3,3-trifluoro-propyl)-piperidine-4-sulfonyl]-biphenyl-4-yl}-1H-[1,2,4]triazole-3,5-diamine; hydrochloride] | – | – | 0.005 | > 10
CC(C)(C)CCN1CCC(S(=O)(=O)c2ccc(-c3c(Cl)cc(Nc4n[nH]c(N)n4)cc3C(F)(F)F)cc2)CC1 [Compound 5, N*3*-{2-Chloro-4′-[1-(3,3-dimethyl-butyl)-piperidine-4-sulfonyl]-6-trifluoromethyl-biphenyl-4-yl}-1H-[1,2,4]triazole-3,5-diamine; hydrochloride] | – | – | 0.005 | > 10
CC(C)(C)OC(=O)N1CCCC(S(=O)(=O)c2ccc(-c3c(Cl)cc(Nc4n[nH]c(N)n4)cc3C(F)(F)F)cc2)C1 (stereo not drawn) [Compound 6, 3-[4′-(5-Amino-1H-[1,2,4]triazol-3-ylamino)-2′-chloro-6′-trifluoromethyl-biphenyl-4-sulfonyl]-piperidine-1-carboxylic acid tert-butyl ester] | – | – | 0.008 | 2.56
CC(C)(C)OC(=O)N1CCC(CS(=O)(=O)c2ccc(-c3c(Cl)cc(Nc4n[nH]c(N)n4)cc3C(F)(F)F)cc2)CC1 [Compound 7, 4-[4′-(5-Amino-1H-[1,2,4]triazol-3-ylamino)-2′-chloro-6′-trifluoromethyl-biphenyl-4-sulfonylmethyl]-piperidine-1-carboxylic acid tert-butyl ester] | – | – | 0.017 | 3.09
CC(C)(C)NC(=O)c1ccc(-c2c(Cl)cc(Nc3n[nH]c(N)n3)cc2Cl)cc1 [Compound 8, 4′-(5-Amino-1H-[1,2,4]triazol-3-ylamino)-2′,6′-dichloro-biphenyl-4-carboxylic acid tert-butylamide] | – | – | 0.013 | > 10
CCCCC(=O)Nc1ccc(-c2c(Cl)cc(Nc3n[nH]c(N)n3)cc2Cl)cc1 [Compound 9, Pentanoic acid [4′-(5-amino-1H-[1,2,4]triazol-3-ylamino)-2′,6′-dichloro-biphenyl-4-yl]-amide] | – | – | 0.014 | 5.05
CC(C)(C)N1Cc2ccc(-c3c(Cl)cc(Nc4n[nH]c(N)n4)cc3C(F)(F)F)cc2S1(=O)=O [Compound 10, N*3*-[4-(2-tert-Butyl-1,1-dioxo-2,3-dihydro-1H-1lambda*6*-benzo[d]isothiazol-6-yl)-3-chloro-5-trifluoromethyl-phenyl]-1H-[1,2,4]triazole-3,5-diamine] | – | – | 0.015 | > 10
Nc1nc(Nc2cc(Cl)c(-c3ccc(S(=O)(=O)C4CCCN(CCC(F)(F)F)C4)cc3)c(C(F)(F)F)c2)n[nH]1 (stereo not drawn) [Compound 11, N*3*-{2-Chloro-6-trifluoromethyl-4′-[1-(3,3,3-trifluoro-propyl)-piperidine-3-sulfonyl]-biphenyl-4-yl}-1H-[1,2,4]triazole-3,5-diamine; hydrochloride] | – | – | 0.017 | 6.78
C[C@H](NS(C)(=O)=O)c1ccc(-c2c(Cl)cc(Nc3n[nH]c(N)n3)cc2C(F)(F)F)cc1 [Compound 13, N—{(S)-1-[4′-(5-Amino-1H-[1,2,4]triazol-3-ylamino)-2′-chloro-6′-trifluoromethyl-biphenyl-4-yl]-ethyl}-methanesulfonamide] | – | – | 0.027 | 21
CS(=O)(=O)c1ccc(-c2c(Cl)cc(Nc3n[nH]c(N)n3)cc2Cl)cc1C(F)(F)F [Compound 14, N*3*-(2,6-Dichloro-4′-methanesulfonyl-3′-trifluoromethyl-biphenyl-4-yl)-1H-[1,2,4]triazole-3,5-diamine] | – | – | 0.052 | 0.12
CS(=O)(=O)n1ccc2c(-c3c(Cl)cc(Nc4n[nH]c(N)n4)cc3Cl)cccc21 [Compound 15, N*3*-[3,5-Dichloro-4-(1-methanesulfonyl-1H-indol-4-yl)-phenyl]-1H-[1,2,4]triazole-3,5-diamine] | – | – | 0.05 | 0.23
CC(C)(C)OC(=O)N1CCN(S(=O)(=O)c2ccc(-c3c(Cl)cc(Nc4n[nH]c(N)n4)cc3C(F)(F)F)cc2)CC1 [Compound 16, 4-[4′-(5-Amino-1H-[1,2,4]triazol-3-ylamino)-2′-chloro-6′-trifluoromethyl-biphenyl-4-sulfonyl]-piperazine-1-carboxylic acid tert-butyl ester] | – | – | 0.03 | > 10
CC(C)(C)CCN1CCCC(S(=O)(=O)c2ccc(-c3c(Cl)cc(Nc4n[nH]c(N)n4)cc3C(F)(F)F)cc2)C1 (stereo not drawn) [Compound 17, N*3*-{2-Chloro-4′-[1-(3,3-dimethyl-butyl)-piperidine-3-sulfonyl]-6-trifluoromethyl-biphenyl-4-yl}-1H-[1,2,4]triazole-3,5-diamine; hydrochloride] | – | – | 0.043 | 4.9
Cc1ccc(-c2c(Cl)cc(Nc3n[nH]c(N)n3)cc2C(F)(F)F)cc1S(=O)(=O)NC(C)(C)C [Compound 18, 4′-(5-Amino-1H-[1,2,4]triazol-3-ylamino)-2′-chloro-4-methyl-6′-trifluoromethyl-biphenyl-3-sulfonic acid tert-butylamide] | – | – | 0.032 | 3.47
COc1ccc(-c2c(Cl)cc(Nc3n[nH]c(N)n3)cc2C(F)(F)F)cc1S(=O)(=O)C(C)C [Compound 19, N*3*-[2-Chloro-4′-methoxy-3′-(propane-2-sulfonyl)-6-trifluoromethyl-biphenyl-4-yl]-1H-[1,2,4]triazole-3,5-diamine] | – | – | 0.049 | > 10
Nc1nc(Nc2cc(Cl)c(-c3ccc(S(=O)(=O)C4CCNCC4)cc3)c(C(F)(F)F)c2)n[nH]1 [Compound 20, N3-(2-chloro-4′-(piperidin-4-ylsulfonyl)-6-(trifluoromethyl)biphenyl-4-yl)-1H-1,2,4-triazole-3,5-diamine hydrochloride] | – | – | 0.053 | 3.46
CC(C)(C)OC(=O)N1CCC(Oc2cccc(-c3c(Cl)cc(Nc4n[nH]c(N)n4)cc3C(F)(F)F)c2)CC1 [Compound 21, 4-[4′-(5-Amino-1H-[1,2,4]triazol-3-ylamino)-2′-chloro-6′-trifluoromethyl-biphenyl-3-yloxy]-piperidine-1-carboxylic acid tert-butyl ester] | – | – | 0.039 | > 10
CN1CCN(S(=O)(=O)c2ccc(-c3c(Cl)cc(Nc4n[nH]c(N)n4)cc3C(F)(F)F)cc2)CC1 [Compound 22, N*3*-[2-Chloro-4′-(4-methyl-piperazine-1-sulfonyl)-6-trifluoromethyl-biphenyl-4-yl]-1H-[1,2,4]triazole-3,5-diamine] | – | – | 0.053 | 13.5
C[C@@H](NS(C)(=O)=O)c1ccc(-c2c(Cl)cc(Nc3n[nH]c(N)n3)cc2C(F)(F)F)cc1 [Compound 24, N—{(R)-1-[4′-(5-Amino-1H-[1,2,4]triazol-3-ylamino)-2′-chloro-6′-trifluoromethyl-biphenyl-4-yl]-ethyl}-methanesulfonamide] | – | – | 0.058 | > 10
Nc1nc(Nc2cc(Cl)c(-c3ccc(S(=O)(=O)CC4CCCNC4)cc3)c(C(F)(F)F)c2)n[nH]1 (stereo not drawn) [Compound 25, N*3*-[2-Chloro-4′-(piperidin-3-ylmethanesulfonyl)-6-trifluoromethyl-biphenyl-4-yl]-1H-[1,2,4]triazole-3,5-diamine; hydrochloride] | – | – | 0.059 | > 10
Nc1nc(Nc2cc(Cl)c(-c3ccc(S(=O)(=O)NC[C@@H]4CCCN4)cc3)c(C(F)(F)F)c2)n[nH]1 [Compound 27, 4′-(5-Amino-1H-[1,2,4]triazol-3-ylamino)-2′-chloro-6′-trifluoromethyl-biphenyl-4-sulfonic acid ((S)-1-pyrrolidin-2-ylmethyl)-amide; hydrochloride] | – | – | 0.052 | 30.1
COc1ccc(-c2c(Cl)cc(Nc3n[nH]c(N)n3)cc2C(F)(F)F)cc1S(=O)(=O)NC1CCOCC1 [Compound 168, 4′-(5-amino-1H-1,2,4-triazol-3-ylamino)-2′-chloro-4-methoxy-N-(tetrahydro-2H-pyran-4-yl)-6′-(trifluoromethyl)biphenyl-3-sulfonamide] | – | – | 0.011 | –
COc1ccc(-c2c(Cl)cc(Nc3n[nH]c(N)n3)cc2C(F)(F)F)cc1S(N)(=O)=O [Compound 180, 4′-(5-amino-1H-1,2,4-triazol-3-ylamino)-2′-chloro-4-methoxy-6′-(trifluoromethyl)biphenyl-3-sulfonamide] | – | – | 0.036 | –
COc1ccc(-c2c(Cl)cc(Nc3n[nH]c(N)n3)cc2C(F)(F)F)cc1S(=O)(=O)NC1CCNCC1 [Compound 222, 4′-(5-Amino-1H-[1,2,4]triazol-3-ylamino)-6′-chloro-4-methoxy-2′-trifluoromethyl-biphenyl-3-sulfonic acid piperidin-4-ylamide; compound with trifluoro-acetic acid] | 0.014 | – | – | –
